Experimental data from patent US20140349340A1, “MBTH-LIKE PROTEINS IN THE PRODUCTION OF SEMI SYNTHETIC ANTIBIOTICS” (DSM SINOCHEM PHARMACEUTICALS NETHERLANDS B.V., priority 2012, published 2014).

Tests used:
Type in all cases: biochemical
[1] = PPi release assay, adenylation activity with D-hydroxyphenylglycine; details: for adenylation activity (absorption 360 nm, PPi release assay) / adenylation activity (PPi release assay): substrate D-hydroxyphenylglycine; for adenylation activity (PPi release assay): co-purified with Tcp13, or Tcp17 or VMbtH
From the text: (§1) These assays use inorganic pyrophosphatases to convert PPi produced during aminoacyl-AMP formation to orthophosphate (Pi). To measure Pi concentrations some of these assays use molybdate/malachite green reagent for colorimetric detection (McQuade et al. 2008) or, as used in the context of the present invention, a shift in absorbance maximum by conversion of 7-methyl-6-thioguanosine (MESG) by purine nucleoside phosphorylase (Ehmann D. E. et al. (Proc. Natl. Acad. Sci. (2000) 97, 2509-2514) or Daniel & Aldrich (Anal. Biochem. (2010) 404, 56-63)).
(§2) To determine the adenylation activity of the adenylation domains, the Enzchek® pyrophosphate assay kit (Life Technologies) was used as described by Ehmann D. E. et al. (Proc Nat Acad Science (2000) 97, 2509-2514) with small modifications. The reactions were performed 96 wells UV/Vis transparent plates (BD Falcon). The reaction mixture comprises 50 mM HEPES pH 8.0, 10 mM MgCl2, 5 mM ATP, 75 mM DTT, 0.03 U Inorganic Pyrophosphatase (IP), 1 U Purine Nucleoside Phosphorylase (PNP) and 0.2 mM MESG in a volume of 70 μl. Next 20 μl (around 0.5-2 μM final concentration) of purified A(T) domain, with or without co-purification of the MbtH like helper protein was added and the reaction was pre-incubated for 15 minutes at RT to reduce contaminating Pi. Following the pre-incubation, 10 μl of a 10 mM or 1 mM solution of the appropriate amino acid depending on the performed specificity determination was added to initiate the adenylation reaction and the absorbance at 360 nm was measured using a TECAN I Control spectrophotometer. Absorbance measurements were made every 5 to 10 min over a period of up to 240 min. A reaction with addition of 10 μl MilliQ water instead was used to determine and subtract the background absorbance. As substrates the following amino acids were used: D- or L-phenylalanine, D- or L-hydroxyphenylglycine, D- or L-phenylglycine, L-tryptophan, L-valine, L-cysteine, and L-leucine.

[2] = PPi release assay, adenylation activity with L-phenylalanine; details: substrate L-phenylalanine; for adenylation activity (PPi release assay): co-purified with Tcp13, or Tcp17 or VMbtH
From the text: as §1, §2

[3] = PPi release assay, adenylation activity with L-hydroxyphenylglycine; details: for adenylation activity (absorption 360 nm, PPi release assay) / adenylation activity (PPi release assay): substrate L-hydroxyphenylglycine
From the text: as §1, §2

[4] = PPi release assay, adenylation activity with D-phenylalanine; details: substrate D-phenylalanine; for adenylation activity (PPi release assay): co-purified with Tcp13, or Tcp17 or VMbtH
From the text: as §1, §2

[5] = PPi release assay, adenylation activity with L-phenylglycine; details: for Formed PPi: substrate L-PG 1 mM; for adenylation activity (PPi release assay): substrate L-phenylglycine, co-purified with Tcp13, or Tcp17 or VMbtH
From the text: as §1, §2

[6] = PPi release assay, adenylation activity with D-phenylglycine; details: for Formed PPi: substrate D-PG 1 mM; for adenylation activity (PPi release assay): substrate D-phenylglycine, co-purified with Tcp13, or Tcp17 or VMbtH
From the text: as §1, §2

[7] = substrate D-HPG 0.1 mM, co-purified with MbtH-like protein Tcp 13
[8] = substrate D-HPG 0.1 mM, co-purified with MbtH-like protein Tcp 17
[9] = substrate D-HPG 0.1 mM, co-purified with MbtH-like protein VMbtH
[10] = substrate D-HPG 1 mM, co-purified with MbtH-like protein Tcp 13
[11] = substrate D-HPG 1 mM, co-purified with MbtH-like protein Tcp 17
[12] = substrate D-HPG 1 mM, co-purified with MbtH-like protein VMbtH
[13] = co-purified with MbtH-like protein Tcp13
[14] = protein alone, without MbtH-like protein
[15] = substrate L-HPG 0.1 mM, co-purified with MbtH-like protein Tcp 13
[16] = substrate L-HPG 0.1 mM, co-purified with MbtH-like protein Tcp 17
[17] = substrate L-HPG 0.1 mM, co-purified with MbtH-like protein VMbtH
[18] = substrate L-HPG 1 mM, co-purified with MbtH-like protein Tcp 13
[19] = substrate L-HPG 1 mM, co-purified with MbtH-like protein Tcp 17
[20] = substrate L-HPG 1 mM, co-purified with MbtH-like protein VMbtH
[21] = co-purified with MbtH-like protein Tcp 13
[22] = co-purified with MbtH-like protein Tcp 17
[23] = co-purified with MbtH-like protein VMbtH
[24] = co-purified with Tcp13, or Tcp17 or VMbtH

| Substance | Formed PPi [1, 7] [mM/min/mM enzyme] | Formed PPi [1, 8] [mM/min/mM enzyme] | Formed PPi [1, 9] [mM/min/mM enzyme] | Formed PPi [1, 10] [mM/min/mM enzyme] | Formed PPi [1, 11] [mM/min/mM enzyme] | Formed PPi [1, 12] [mM/min/mM enzyme] | adenylation activity (absorption 360 nm, PPi release assay) [1, 13] | adenylation activity (absorption 360 nm, PPi release assay) [1, 14] | adenylation activity (absorption 360 nm, PPi release assay) [2, 13] | adenylation activity (absorption 360 nm, PPi release assay) [2, 14] | Formed PPi [3, 15] [mM/min/mM enzyme] | Formed PPi [3, 16] [mM/min/mM enzyme] | Formed PPi [3, 17] [mM/min/mM enzyme] | Formed PPi [3, 18] [mM/min/mM enzyme] | Formed PPi [3, 19] [mM/min/mM enzyme] | Formed PPi [3, 20] [mM/min/mM enzyme] | adenylation activity (absorption 360 nm, PPi release assay) [3, 13] | adenylation activity (absorption 360 nm, PPi release assay) [3, 14] | adenylation activity (absorption 360 nm, PPi release assay) [4, 13] | adenylation activity (absorption 360 nm, PPi release assay) [4, 14] | further results |
| --- | --- | --- | --- | --- | --- | --- | --- | --- | --- | --- | --- | --- | --- | --- | --- | --- | --- | --- | --- | --- | --- |
| Tcp9_M1_AT: purified adenylation thiolation didomain of Tcp9 (SEQ ID NO: 1 plus adjacent thiolation domain), MBP fusion, His-tag | 2.07 | 1.71 | 3.72 | 5.28 | 4.63 | 8.44 | clear adenylation activity | No adenylation activity | no activity | No adenylation activity | 1.18 | 1.20 | 1.23 | 1.16 | 1.34 | 1.40 | clear adenylation activity | No adenylation activity | no activity | No adenylation activity | Formed PPi [5, 21]: 1.32 mM/min/mM enzyme; Formed PPi [5, 22]: 1.44 mM/min/mM enzyme; Formed PPi [5, 23]: 2.32 mM/min/mM enzyme; Formed PPi [6, 21]: 0.05 mM/min/mM enzyme; Formed PPi [6, 22]: 0.05 mM/min/mM enzyme; Formed PPi [6, 23]: 0.07 mM/min/mM enzyme |
| BpsB_M1_A: purified adenylation domain of BpsB module M1 (SEQ ID NO: 26); Amycolatopsis balhimycina | – | – | – | – | – | – | – | No adenylation activity | – | No adenylation activity | – | – | – | – | – | – | – | No adenylation activity | – | No adenylation activity | adenylation activity (PPi release assay) [1]: no adenylation activity; adenylation activity (PPi release assay) [2]: no adenylation activity; adenylation activity (PPi release assay) ([3]; co-purified with MbtH-like protein BMbtH): confirmed its activity; adenylation activity (PPi release assay) [3, 24]: no adenylation activity; adenylation activity (PPi release assay) [4]: no adenylation activity; adenylation activity (PPi release assay) [5]: no adenylation activity; adenylation activity (PPi release assay) [6]: no adenylation activity |
| Teg7_M1_A: purified adenylation domain of Teg7 module M1 (SEQ ID NO: 27); uncultured soil bacterium | – | – | – | – | – | – | – | No adenylation activity | – | No adenylation activity | – | – | – | – | – | – | – | No adenylation activity | – | No adenylation activity | adenylation activity (PPi release assay) [1]: no adenylation activity; adenylation activity (PPi release assay) [2]: no adenylation activity; adenylation activity (PPi release assay) ([3]; co-purified with MbtH-like protein TMbtH): the same specificity; adenylation activity (PPi release assay) [3, 24]: no adenylation activity; adenylation activity (PPi release assay) [4]: no adenylation activity; adenylation activity (PPi release assay) [5]: no adenylation activity; adenylation activity (PPi release assay) [6]: no adenylation activity |
| Veg8_M1_A: purified adenylation domain of Veg8 module M1 (SEQ ID NO: 6), maltose binding protein fusion, His-tag; uncultured soil bacterium | 0.14 | 0.17 | 0.18 | 0.92 | 1.03 | 1.39 | clear adenylation activity | no activity | no activity | no activity | 0.56 | 0.70 | 0.61 | 0.59 | 0.64 | 0.61 | clear adenylation activity | very minor adenylation activity | no activity | no activity | Formed PPi [5, 21]: 0.17 mM/min/mM enzyme; Formed PPi [5, 22]: 0.14 mM/min/mM enzyme; Formed PPi [5, 23]: 0.20 mM/min/mM enzyme; Formed PPi [6, 21]: 0.01 mM/min/mM enzyme; Formed PPi [6, 22]: 0.02 mM/min/mM enzyme; Formed PPi [6, 23]: 0.02 mM/min/mM enzyme |
| StaA_M1_A: purified adenylation domain of StaA module M1 (SEQ ID NO: 3); Streptomyces toyocaensis | – | – | – | – | – | – | – | No adenylation activity | – | No adenylation activity | – | – | – | – | – | – | – | No adenylation activity | – | No adenylation activity | adenylation activity (absorption 360 nm, PPi release assay) [1, 23]: clear adenylation activity; adenylation activity (absorption 360 nm, PPi release assay) [2, 23]: no activity; adenylation activity (absorption 360 nm, PPi release assay) [3, 23]: clear adenylation activity; adenylation activity (absorption 360 nm, PPi release assay) [4, 23]: no activity |
| Dbv25_M1_A: purified adenylation domain of Dbv25 module M1 (SEQ ID NO: 2); Nonomuraea sp. ATCC 39727 | – | – | – | – | – | – | – | No adenylation activity | – | No adenylation activity | – | – | – | – | – | – | – | No adenylation activity | – | No adenylation activity | adenylation activity (absorption 360 nm, PPi release assay) [1, 23]: clear adenylation activity; adenylation activity (absorption 360 nm, PPi release assay) [2, 23]: no activity; adenylation activity (absorption 360 nm, PPi release assay) [3, 23]: clear adenylation activity; adenylation activity (absorption 360 nm, PPi release assay) [4, 23]: no activity |
